biological target: T1, Tyrosine-protein kinase JAK3 (Homo sapiens, UniProt P52333); experiment: ChEBML_91954
T1 sequence (P52333 whole entry): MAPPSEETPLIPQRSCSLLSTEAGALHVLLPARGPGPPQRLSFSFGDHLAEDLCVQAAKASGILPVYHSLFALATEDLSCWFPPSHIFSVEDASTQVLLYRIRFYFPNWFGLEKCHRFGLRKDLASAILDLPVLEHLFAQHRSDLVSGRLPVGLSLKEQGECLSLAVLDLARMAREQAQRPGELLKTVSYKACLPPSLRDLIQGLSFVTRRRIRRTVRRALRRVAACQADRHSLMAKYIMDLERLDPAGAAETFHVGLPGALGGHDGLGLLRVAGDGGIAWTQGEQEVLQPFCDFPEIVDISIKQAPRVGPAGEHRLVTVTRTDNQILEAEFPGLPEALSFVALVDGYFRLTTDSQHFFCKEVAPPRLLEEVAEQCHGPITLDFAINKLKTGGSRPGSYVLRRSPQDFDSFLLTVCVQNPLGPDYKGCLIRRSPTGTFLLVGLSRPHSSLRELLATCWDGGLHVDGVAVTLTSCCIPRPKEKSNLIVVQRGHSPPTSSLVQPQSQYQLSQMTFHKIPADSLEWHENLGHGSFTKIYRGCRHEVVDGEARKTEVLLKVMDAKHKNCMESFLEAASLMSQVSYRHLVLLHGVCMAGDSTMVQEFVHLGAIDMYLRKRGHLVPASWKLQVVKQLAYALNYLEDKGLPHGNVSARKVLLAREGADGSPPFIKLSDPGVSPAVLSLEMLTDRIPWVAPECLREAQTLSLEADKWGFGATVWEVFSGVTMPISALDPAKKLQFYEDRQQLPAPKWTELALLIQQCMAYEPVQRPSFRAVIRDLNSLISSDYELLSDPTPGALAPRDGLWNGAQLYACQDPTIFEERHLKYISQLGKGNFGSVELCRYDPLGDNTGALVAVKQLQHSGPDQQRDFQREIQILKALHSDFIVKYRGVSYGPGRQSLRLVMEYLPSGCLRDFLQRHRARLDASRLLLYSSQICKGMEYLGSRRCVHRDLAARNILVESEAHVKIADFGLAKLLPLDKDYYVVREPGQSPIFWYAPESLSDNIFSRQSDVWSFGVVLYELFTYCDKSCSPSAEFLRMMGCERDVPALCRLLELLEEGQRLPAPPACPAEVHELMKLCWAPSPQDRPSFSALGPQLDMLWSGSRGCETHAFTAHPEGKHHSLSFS
Source text: (§1) In vitro inhibition of Janus kinase 3.

`CC(=Cc1ccccc1)C(=O)CCN1CCOCC1` and `O=C(C=Cc1ccccc1Cl)CCN1CCOCC1` are the same in IC50: 12.6 µM for the first, 12.6 µM for the second.

Going from `C=CC(=O)c1ccc2ccccc2c1` [Thr1 inhibitor, 1] to `C=CC(O)c1ccc2ccccc2c1` (stereo not drawn), the IC50 rises from 0.0794 µM to 501 µM (6300-fold).

Going from `COc1ccc2cc(C(=O)CCN3CCOCC3)ccc2c1` to `O=C(CCN1CCOCC1)c1ccc2ccccc2c1`, the IC50 falls from 15.8 µM to 2 µM (7.9-fold). The second is the more potent here.

First: O=C(CCN1CCCCCC1)c1ccc2ccccc2c1
Second: O=C(CCN1CCOCC1)c1ccc2ccc3ccccc3c2c1
The IC50 of the first is 1.6-fold higher: 0.794 µM for the first, 0.501 µM for the second.

Going from `COc1cc2ccc(C(=O)CCN3CCOCC3)cc2cc1OC` to `O=C(CCN1CCOCC1)c1cccc2ccccc12`, the IC50 falls from 200 µM to 3.16 µM (63-fold). The second is the more potent here.

First: CN(C)CCC(=O)c1ccc2ccccc2c1
Second: CC(C)N(CCC(=O)c1ccc2ccccc2c1)Cc1ccccc1
The IC50 of the first is 7.9-fold higher: 0.63 µM for the first, 0.0794 µM for the second.

`N#C/C(=C\c1ccc(O)c(O)c1)C(=O)NCc1ccccc1` showed an IC50 of 12.6 µM.

biological target: T1, Tyrosine-protein kinase JAK3; experiment: as §1

`ON=C(CCN1CCOCC1)c1ccc2ccccc2c1` and `O=C(CCCN1CCOCC1)c1ccc2ccccc2c1` cannot be ordered by IC50: over 1000 µM for the first, over 1000 µM for the second.

`O=c1c(CN2CCOCC2)coc2cc3ccccc3cc12` and `CC(C)(CN1CCOCC1)C(=O)c1ccc2ccccc2c1` cannot be ordered by IC50: over 1000 µM for the first, over 1000 µM for the second.

`O=C(CCNCc1ccccc1)c1ccc2ccccc2c1` was tested, and the IC50 was over 1000 µM.

From BindingDB's records for doi:10.1016/s0960-894x(00)00051-2 (Astrazeneca, 2000)
